In PubChem BioAssay (NCI):
Values joined by “and” are separate entries in the source; they are usually repeats but may differ in a detail not shown here. Equal entries are not always repeated.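 Step 1: Grow cells in 96-well plates. Step 2: Expose to compound for 48 hours at 5 concentrations. Step 3: Interpolate endpoints linearly; if unreached, use highest concentration. GI50 marks 50% less growth. Definition used: TGI = concentration required for complete inhibition of growth.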

Tests used:
Experiment in all cases: DTP human tumour cell line panel, 48 h
HOP-92 NSCLC = system: HOP-92 NSCLC
TK-10 renal = system: TK-10 renal
DU-145 prostate = system: DU-145 prostate
ACHN renal = system: ACHN renal
CAKI-1 renal = system: CAKI-1 renal
HL-60(TB) leukemia = system: HL-60(TB) leukemia
SN12C renal = system: SN12C renal
A498 renal = system: A498 renal
NCI-H522 lung = system: NCI-H522 lung
T-47D breast = system: T-47D breast

Compound	TGI (HOP-92 NSCLC)	TGI (TK-10 renal)	TGI (DU-145 prostate)	TGI (ACHN renal)	TGI (CAKI-1 renal)	TGI (HL-60(TB) leukemia)	TGI (SN12C renal)	TGI (A498 renal)	TGI (NCI-H522 lung)	TGI (T-47D breast)	GI50 (NCI-H522 lung)
CC(C)=CCC/C(C)=C/COC(C)(C)C1=CCC(C)CC1 (stereo not drawn) (tested in a mixture with another compound)	> 100 µM	> 100 µM	> 100 µM	> 100 µM	> 100 µM	50.9 µM	> 100 µM	> 100 µM	> 100 µM	–	–
CC12CCC3C(CCC4CC(OC(=O)Cc5ccc(N(CCCl)CCCl)cc5)CCC43C)C1CCC(=O)N2 (stereo not drawn)	30.9 µM	35.5 µM	–	23.2 µM	29.5 µM	22 µM	29.6 µM	31.4 µM	28.3 µM	–	–
Cc1cc(-c2nc3ccccc3s2)ccc1NC(=O)[C@@H](N)CCCCN	33.3 µM	23.2 µM	25.2 µM	30.8 µM	20.8 µM	–	32.9 µM	19.2 µM	19.2 µM	1.14 µM	–
CC(C(=O)N1C(=O)N(C(=O)C(C)C(O)c2ccccc2)C2CCCCC21)C(O)c1ccccc1 (stereo not drawn)	–	> 100 µM	–	> 100 µM	–	70 µM	> 100 µM	–	> 100 µM	–	–
O=C(O)c1cc(-c2ccc3c(O)c(O)ccc3c2)ccc1O	–	> 75 µM	> 75 µM	> 75 µM	25.6 µM	53.5 µM	30.8 µM	> 75 µM	> 75 µM	> 75 µM	–
CC(C)(C)OC(=O)NCCC(N)=S	> 100 µM	> 100 µM	> 100 µM	> 100 µM	–	> 100 µM	> 100 µM	> 100 µM	–	> 100 µM	–
CC1=C2C(=C[C@H]3[C@]4(C)CCCC(C)(C)[C@H]4CC[C@]34O[C@H]24)OC1=O	> 100 µM	> 100 µM	> 100 µM	> 100 µM	–	–	> 100 µM	> 100 µM	> 100 µM	–	–
CSC(=Nc1ccccc1)N(c1ccccc1)c1nc(=[N+](C)C)ss1	7.09 µM	27.7 µM	–	16.9 µM	11.3 µM	3.2 µM	14.7 µM	27.9 µM	1.72 µM	–	–
COc1c(O)c2c3c(c(C)cc(O)c3c1O)C(=O)C(O)(C(C)(C)C(C)=O)C2=O (stereo not drawn)	> 100 µM	> 100 µM	–	> 100 µM	> 100 µM	> 100 µM	> 100 µM	–	> 100 µM	–	49.7 µM and > 100 µM
COc1ccc(CC2c3c(cc(OC)c(OC)c3OC)CCN2C)cc1OC (stereo not drawn)	–	> 100 µM	–	> 100 µM	> 100 µM	–	> 100 µM	> 100 µM	> 100 µM	–	–
CC(O)CCCOC(c1ccccc1)(c1ccccc1)c1ccccc1 (stereo not drawn)	25.5 µM	30.6 µM	30.4 µM	27.8 µM	29.9 µM	> 55.1 µM	30.6 µM	34.7 µM	26.8 µM	–	–
CC(=O)OCC1OC(n2cc(I)c(=O)[nH]c2=O)C(OC(C)=O)C(OC(C)=O)C1OC(C)=O (stereo not drawn)	> 100 µM	> 100 µM	–	> 100 µM	> 100 µM	> 100 µM	> 100 µM	> 100 µM	> 100 µM	–	–
O=[N+]([O-])c1ccc(/C=C/c2cc(-c3ccccc3)nc3ccc4ccccc4c23)cc1	–	> 100 µM	> 100 µM	> 100 µM	> 100 µM	> 100 µM	> 100 µM	> 100 µM	–	–	–
S=C(/N=c1\sc(Nc2ccc(Cl)cc2)nc2sc3c(c12)CCN(N1CCc2c(sc4nc(Nc5ccc(Cl)cc5)s/c(=N\C(=S)Nc5ccc(Cl)cc5)c24)C1)C3)Nc1ccc(Cl)cc1	–	> 100 µM	64.6 µM	> 100 µM	–	–	38.5 µM	–	> 100 µM	–	–
CCOC(=O)c1c(-c2ccccc2)c(-c2ccccc2)cn1C	> 10 µM	> 10 µM	> 10 µM	> 10 µM	–	> 10 µM	> 10 µM	–	> 10 µM	–	–
CCOC(=O)C(Cl)(Cl)/S(=N\S(=O)(=O)c1ccccc1)NC(=O)c1ccccc1 (stereo not drawn)	> 100 µM	> 100 µM	> 100 µM	> 100 µM	–	> 100 µM	> 100 µM	> 100 µM	–	> 100 µM	–
CC1=NN(C(=O)CC(=O)Nc2ccccc2F)C(=O)C1N=Nc1ccccc1[N+](=O)[O-] (stereo not drawn)	–	> 100 µM	–	–	> 100 µM	–	> 100 µM	–	> 100 µM	–	–
CCC1=CC2CN3Cn4c(c(COCc5c6n(c7ccccc57)CN5CC7C=C(CC)C5C6(C(=O)OC)C7)c5ccccc54)C(C(=O)OC)(C2)C13	–	> 100 µM	–	> 100 µM	> 100 µM	> 100 µM	> 100 µM	> 100 µM	> 100 µM	–	–
S=c1[nH]c2ccc(Br)cc2c(=S)s1	64.8 µM	84.5 µM	> 100 µM	56.7 µM	57.9 µM	62.4 µM	46.5 µM	–	77.7 µM	73.9 µM	–
N#CCc1nc(-c2ccccc2)n[nH]1	–	> 100 µM	> 100 µM	> 100 µM	> 100 µM	> 100 µM	> 100 µM	–	> 100 µM	> 100 µM	–
CC(=O)O/N=C/c1c2ccccc2cc2ccccc12	> 100 µM	> 100 µM	> 100 µM	68.5 µM	> 100 µM	> 100 µM	> 100 µM	> 100 µM	–	> 100 µM	–
N#CC1=C(c2ccccc2)NNC(c2ccc(Cl)cc2)CC1=O (stereo not drawn)	> 100 µM	> 100 µM	–	> 100 µM	> 100 µM	> 100 µM	> 100 µM	> 100 µM	51.7 µM	–	–
O=C(Cc1ccccc1)NN1C(=O)/C(=C\c2ccccc2)SC1=Nc1ccccc1	> 100 µM	> 100 µM	> 100 µM	> 100 µM	–	–	> 100 µM	> 100 µM	–	> 100 µM	–
O=C(CN(c1ccccc1)c1ccccc1)N1c2ccccc2C2C=CC=CC21 (stereo not drawn)	–	> 57.2 µM	–	> 59.1 µM	32.2 µM	25.7 µM	34.4 µM	77.4 µM	49 µM	–	–
O=C(Nc1ccccc1F)c1cc2ccc(O)cc2oc1=Nc1ccccc1F	–	–	3.75 µM	5.3 µM	4.46 µM	4.54 µM	–	–	3.09 µM	4.63 µM	–
Cc1ccc([N+](=O)[O-])cc1N=NC(=O)NNc1cc([N+](=O)[O-])ccc1C	> 100 µM	–	> 100 µM	–	66.8 µM	> 100 µM	–	84.4 µM	29.7 µM	> 100 µM	–
